The values below are quoted from earlier work in US20110091889A1, “CENTROSOME-ASSAY” (4SC AG, priority 2008, published 2011).

The structures appear in SMILES notation.

The series deals with T1, Eg5 (Homo sapiens, UniProt P52732).
T1 sequence (P52732 1-1056): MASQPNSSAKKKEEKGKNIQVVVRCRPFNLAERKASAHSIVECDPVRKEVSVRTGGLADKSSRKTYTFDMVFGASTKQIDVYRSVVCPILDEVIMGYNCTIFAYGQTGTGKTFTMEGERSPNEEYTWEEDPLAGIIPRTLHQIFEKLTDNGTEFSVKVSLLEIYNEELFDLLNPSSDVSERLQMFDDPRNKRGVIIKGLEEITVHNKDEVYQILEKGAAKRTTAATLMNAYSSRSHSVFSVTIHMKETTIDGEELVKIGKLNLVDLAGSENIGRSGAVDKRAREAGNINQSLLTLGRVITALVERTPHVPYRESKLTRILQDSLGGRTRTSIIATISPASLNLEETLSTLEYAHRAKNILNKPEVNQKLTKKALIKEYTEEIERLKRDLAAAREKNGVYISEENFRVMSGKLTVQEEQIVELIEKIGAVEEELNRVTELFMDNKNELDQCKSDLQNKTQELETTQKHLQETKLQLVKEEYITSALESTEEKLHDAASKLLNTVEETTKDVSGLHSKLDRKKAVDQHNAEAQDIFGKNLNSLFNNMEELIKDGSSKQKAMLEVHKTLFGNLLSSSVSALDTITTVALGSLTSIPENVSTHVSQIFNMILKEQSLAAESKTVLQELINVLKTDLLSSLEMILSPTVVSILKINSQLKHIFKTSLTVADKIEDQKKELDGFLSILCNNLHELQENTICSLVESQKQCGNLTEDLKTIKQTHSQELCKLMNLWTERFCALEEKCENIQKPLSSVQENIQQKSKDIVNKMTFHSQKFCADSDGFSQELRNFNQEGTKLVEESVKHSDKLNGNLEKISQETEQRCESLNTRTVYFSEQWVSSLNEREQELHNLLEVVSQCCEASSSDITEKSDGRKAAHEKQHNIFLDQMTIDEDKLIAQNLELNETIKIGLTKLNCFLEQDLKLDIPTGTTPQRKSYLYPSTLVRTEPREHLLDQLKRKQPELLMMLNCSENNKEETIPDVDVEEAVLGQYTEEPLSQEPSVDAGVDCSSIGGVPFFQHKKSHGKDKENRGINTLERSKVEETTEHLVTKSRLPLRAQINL
Particulars: as compared to the (R)-enantiomer; in vitro and in vivo.

For the compound `CCOC(=O)C1=C(C)NC(=S)N[C@H]1c1cccc(O)c1` [(S)-monastrol], the “relative potency as inhibitor of Eg5 activity” value is “more potent inhibitor of Eg5 activity”.
